Assay results published in ChEMBL document CHEMBL4354883, “Design, Synthesis, and Biological Evaluation of HSP90 Inhibitor-SN38 Conjugates for Targeted Drug Accumulation” (J Med Chem, 2020).
pIC50: −log10 of the molar value. Calls of active or inactive are those of the source. The rule behind the calls is not given here.

Key:
[1] = Drug uptake in human A549 cells assessed as blue shift in absorption spectrum at 5 uM by UV-visible absorption spectral analysis; assay type: ADME, cell-based; conditions: a549, 5 µM
[2] = Drug uptake in human A549 cells assessed as maximum emission peaks at 430 nm at 5 uM by fluorescence emission spectral analysis; assay type: ADME, cell-based; conditions: a549, 5 µM
[3] = Drug uptake in human A549 cells assessed as blue fluorescence at 5 uM after 12 hrs by confocal laser scanning microscopic analysis; assay type: ADME, cell-based; conditions: a549, 12 h
[4] = system: A549; assay: Antiproliferative activity against human A549 cells assessed as reduction in cell viability after 72 hrs by SRB assay; assay type: functional, cell-based; conditions: A549, 72 h
[5] = system: HCT-116; assay: Antiproliferative activity against human HCT116 cells assessed as reduction in cell viability after 72 hrs by SRB assay; assay type: functional, cell-based; conditions: HCT-116, 72 h
[6] = system: MIA PaCa-2; assay: Antiproliferative activity against human MIAPaCa2 cells assessed as reduction in cell viability after 72 hrs by SRB assay; assay type: functional, cell-based; conditions: MIA PaCa-2, 72 h
[7] = system: CAPAN-1; assay: Antiproliferative activity against human Capan1 cells assessed as reduction in cell viability after 72 hrs by SRB assay; assay type: functional, cell-based; conditions: CAPAN-1, 72 h
[8] = system: L02; assay: Cytotoxicity agains human HL7702 cells assessed as reduction in cell viability after 72 hrs by SRB assay; assay type: cell-based; conditions: L02, 72 h
[9] = system: A549; assay: Downregulation of TOP1 expression in human A549 cells after 24 hrs by Western blot analysis; assay type: functional, cell-based
[10] = system: HCT-116; assay: Downregulation of TOP1 expression in human HCT116 cells after 24 hrs by Western blot analysis; assay type: functional, cell-based
[11] = system: Mus musculus; assay: In vivo inhibition of HSP90 in mouse xenografted with human Capan1 cells assessed as increase in HSP70 protein expression at 36 mg/kg, iv for every 2 days measured at 2 hrs post last dose by Western blot analysis; assay type: functional, organism-based
[12] = system: Mus musculus; assay: In vivo inhibition of HSP90 in mouse xenografted with human Capan1 cells assessed as decrease in AKT protein expression at 36 mg/kg, iv for every 2 days measured at 2 hrs post last dose by Western blot analysis; assay type: functional, organism-based
[13] = Prodrug release in tumor of mouse xenografted with human Capan1 cells assessed as increase in 7-ethyl-10-hydroxycamptothecin level at 36 mg/kg, iv after 24 hrs by LC-MS/MS analysis; assay type: ADME, organism-based, Neoplasm; conditions: in vivo
[14] = Prodrug release in mouse plasma xenografted with human HCT116 cells assessed as increase in 7-ethyl-10-hydroxycamptothecin level at 15 mg/kg, iv administered as single dose and measured after 30 mins to 72 hrs by LC-MS/MS analysis; assay type: ADME, organism-based; conditions: in vivo
[15] = Prodrug release in tumor of mouse xenografted with human HCT116 cells assessed as increase in 7-ethyl-10-hydroxycamptothecin level at 15 mg/kg, iv administered as single dose by LC-MS/MS analysis; assay type: ADME, organism-based, Neoplasm; conditions: in vivo
[16] = system: Mus musculus; assay: In vivo inhibition of topoisomerase 1 in mouse xenografted with human Capan1 cells assessed as increase in phosphorylated KAP1 expression at 36 mg/kg, iv for every 2 days measured at 2 hrs post last dose by Western blot analysis; assay type: functional, organism-based
[17] = system: Mus musculus; assay: Down regulation of topoisomerase 1 expression in mouse xenografted with human Capan1 cells at 36 mg/kg, iv for every 2 days measured at 2 hrs post last dose by Western blot analysis; assay type: functional, organism-based

Drug uptake [1]: Active
Drug uptake [2]: Active
Drug uptake [3]: Not Active
pIC50 [4]: 5.81
pIC50 [5]: 6.30
pIC50 [6]: 5.88
Drug metabolism [13]: Metabolite_Notdetected
Drug metabolism [14]: Metabolite_Detected
Drug metabolism [15]: Metabolite_Detected
Structure (SMILES): CCc1c2c(nc3ccc(OC(=O)N4CCC(N5CCCCC5)CC4)cc13)-c1cc3c(c(=O)n1C2)COC(=O)[C@]3(O)CC [IRINOTECAN]
pIC50 [7]: 5.95
pIC50 [8]: 5.88
TOP1 downregulation [9]: Active
inhibition [10]: Active
inhibition [11]: inactive
inhibition [12]: inactive
inhibition [16]: Active
inhibition [17]: Active
